We go through 16 compounds from patent US11173151B2, “Substituted triazole derivatives and uses thereof” (BAYER AKTIENGESELLSCHAFT, priority 2017, dated 2021).

Test [1] addresses T1, human V1a receptor (Homo sapiens, UniProt P37288).
T1 construct: expressed in transfected cells; host or cells: CHO K1 (ATCC), also stably transfected with a modified aequorin
The experiment in a line: Cellular in vitro assay for determining vasopressin receptor activity, V1a receptor cell line (CHO, aequorin luminescence). To be noted: for IC50: CHO cell line transfected with human V1a receptor, [Arg]-vasopressin at EC50 concentration, read-out: IC50 hV1a; for ratio IC50 hV2/hV1a: selectivity ratio IC50 hV2 / IC50 hV1a. The class given is cell-based. The method, boiled down: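 Luminescence from reconstituted aequorin, reporting intracellular calcium release, was measured immediately after adding [Arg]-vasopressin at EC50 concentration to CHO K1 cells pretreated 10 minutes with graded compound concentrations. Inhibition gave IC50 values.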

Test [2] addresses T2, human V2 receptor (Homo sapiens, UniProt P30518).
T2 construct: expressed in transfected cells; host or cells: CHO K1 (ATCC) expressing firefly luciferase under a CRE-responsive promoter
The test is described as follows: Cellular in vitro assay for determining vasopressin receptor activity, V2 receptor cell line (CHO, CRE-luciferase). The class given is cell-based. As to conditions: CHO cell line transfected with human V2 receptor; [Arg8]-vasopressin at EC50 concentration; read-out: IC50 hV2.

T2 sequence (P30518 whole entry): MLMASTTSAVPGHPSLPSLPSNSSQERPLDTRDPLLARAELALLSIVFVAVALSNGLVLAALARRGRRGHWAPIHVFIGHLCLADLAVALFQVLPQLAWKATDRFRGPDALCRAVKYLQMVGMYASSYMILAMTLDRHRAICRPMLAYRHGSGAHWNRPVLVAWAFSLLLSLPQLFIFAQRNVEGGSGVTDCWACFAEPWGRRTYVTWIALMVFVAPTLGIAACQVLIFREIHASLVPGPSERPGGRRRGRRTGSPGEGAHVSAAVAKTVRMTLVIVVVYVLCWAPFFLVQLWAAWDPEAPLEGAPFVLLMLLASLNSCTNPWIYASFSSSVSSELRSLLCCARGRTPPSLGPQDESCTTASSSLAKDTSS
T1 sequence (P37288 whole entry): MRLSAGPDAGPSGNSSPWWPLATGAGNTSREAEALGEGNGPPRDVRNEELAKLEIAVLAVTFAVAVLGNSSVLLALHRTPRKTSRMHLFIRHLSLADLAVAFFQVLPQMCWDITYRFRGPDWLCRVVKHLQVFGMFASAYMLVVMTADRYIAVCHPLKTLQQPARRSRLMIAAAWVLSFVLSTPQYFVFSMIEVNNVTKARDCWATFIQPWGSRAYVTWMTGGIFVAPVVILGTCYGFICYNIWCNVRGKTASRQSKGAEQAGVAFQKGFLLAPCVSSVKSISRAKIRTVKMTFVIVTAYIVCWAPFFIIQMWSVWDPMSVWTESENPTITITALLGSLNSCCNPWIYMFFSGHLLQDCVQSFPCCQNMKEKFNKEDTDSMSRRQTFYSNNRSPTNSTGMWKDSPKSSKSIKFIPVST

Regarding `NC(=O)C1CCCN1C(=O)c1cccc(Cl)c1-n1cnc(Cn2nc(-c3ccc(Cl)cc3)n(C[C@@H](O)C(F)(F)F)c2=O)n1` (mixture of isomers) [Example 400, 1-{3-Chloro-2-[3-({3-(4-chlorophenyl)-5-oxo-4-[(2R)-3,3,3-trifluoro-2-hydroxypropyl]-4,5-dihydro-1H-1,2,4-triazol-1-yl}methyl)-1H-1,2,4-triazol-1-yl]benzoyl}-prolinamide], in test [1], the IC50 was found to be 570 nM and the “ratio IC50 hV2/hV1a” value is given as 56.1. Also, the IC50 in test [2] was 32000 nM.
`O=C(NC1CC1F)c1cccc(Cl)c1-n1cnc(Cn2nc(-c3ccc(Cl)cc3)n(C[C@@H](O)C(F)(F)F)c2=O)n1` (mixture of isomers) [Example 406, 3-Chloro-2-[3-({3-(4-chlorophenyl)-5-oxo-4-[(2R)-3,3,3-trifluoro-2-hydroxypropyl]-4,5-dihydro-1H-1,2,4-triazol-1-yl}methyl)-1H-1,2,4-triazol-1-yl]-N-[2-fluorocyclopropyl]benzamide]: the IC50 was determined as 26 nM in test [1] and 10100 nM in test [2]. In addition, the “ratio IC50 hV2/hV1a” value in test [1] came to 390.4.
On to `NC(CNC(=O)c1cccc(Cl)c1-n1cnc(Cn2nc(-c3ccc(Cl)cc3)n(C[C@@H](O)C(F)(F)F)c2=O)n1)C(F)(F)F` (mixture of isomers) [Example 408, N-[2-Amino-3,3,3-trifluoropropyl]-3-chloro-2-[3-({3-(4-chlorophenyl)-5-oxo-4-[(2R)-3,3,3-trifluoro-2-hydroxypropyl]-4,5-dihydro-1H-1,2,4-triazol-1-yl}methyl)-1H-1,2,4-triazol-1-yl]benzamide], for which, in test [1], the IC50 came to 400 nM and the “ratio IC50 hV2/hV1a” value came to 21.3. In addition, in test [2], the IC50 was determined as 8500 nM.
In the same order, the values of `O=C(NC1CC1(F)F)c1cccc(C(F)(F)F)c1-n1cnc(Cn2nc(-c3ccc(Cl)cc3)n(C[C@H](O)C(F)(F)F)c2=O)n1` (mixture of isomers) [Example 420, 2-[3-({3-(4-Chlorophenyl)-5-oxo-4-[(2S)-3,3,3-trifluoro-2-hydroxypropyl]-4,5-dihydro-1H-1,2,4-triazol-1-yl}methyl)-1H-1,2,4-triazol-1-yl]-N-[2,2-difluorocyclopropyl]-3-(trifluoromethyl)benzamide] are 58.5 nM, 19.7 and 1150 nM.
As for `NC(CNC(=O)c1ncccc1-n1cnc(Cn2nc(-c3ccc(Cl)cc3)n(C[C@H](O)C(F)(F)F)c2=O)n1)C(F)(F)F` (mixture of isomers) [Example 429, N-[(2R)-2-Amino-3,3,3-trifluoropropyl]-3-[3-({3-(4-chlorophenyl)-5-oxo-4-[(2S)-3,3,3-trifluoro-2-hydroxypropyl]-4,5-dihydro-1H-1,2,4-triazol-1-yl}methyl)-1H-1,2,4-triazol-1-yl]pyridine-2-carboxamide], the IC50 in test [1] is 51 nM; in test [2], 1400 nM. Moreover, the “ratio IC50 hV2/hV1a” value in test [1] is 27.5.
As for `O=C(NCC(O)C(F)(F)F)c1ncccc1-n1cnc(Cn2nc(-c3ccc(Cl)cc3)n(C[C@H](O)C(F)(F)F)c2=O)n1` (mixture of isomers) [Example 430, 3-[3-({3-(4-Chlorophenyl)-5-oxo-4-[(2S)-3,3,3-trifluoro-2-hydroxypropyl]-4,5-dihydro-1H-1,2,4-triazol-1-yl}methyl)-1H-1,2,4-triazol-1-yl]-N-[3,3,3-trifluoro-2-hydroxypropyl]pyridine-2-carboxamide], in test [1], the IC50 turned out to be 44.5 nM and the “ratio IC50 hV2/hV1a” value is listed as 16.0. Further, the IC50 in test [2] was 710 nM.
For `O=C(NC1CC1(F)F)c1ncccc1-n1cnc(Cn2nc(-c3ccc(Cl)cc3)n(C[C@H](O)C(F)(F)F)c2=O)n1` (mixture of isomers) [Example 436, 3-[3-({3-(4-Chlorophenyl)-5-oxo-4-[(2S)-3,3,3-trifluoro-2-hydroxypropyl]-4,5-dihydro-1H-1,2,4-triazol-1-yl}methyl)-1H-1,2,4-triazol-1-yl]-N-[2,2-difluorocyclopropyl]pyridine-2-carboxamide], in test [1], the IC50 came out at 25 nM and the “ratio IC50 hV2/hV1a” value is given as 33.0. The IC50 in test [2] is 825 nM.
For `CC1CN(C(=O)c2ncccc2-n2cnc(Cn3nc(-c4ccc(Cl)cc4)n(C[C@H](O)C(F)(F)F)c3=O)n2)CCO1` (mixture of isomers) [Example 440, 5-(4-Chlorophenyl)-2-{[1-(2-{[2-methylmorpholin-4-yl]carbonyl}pyridin-3-yl)-1H-1,2,4-triazol-3-yl]methyl}-4-[(2S)-3,3,3-trifluoro-2-hydroxypropyl]-2,4-dihydro-3H-1,2,4-triazol-3-one], in test [1], the IC50 stood at 100 nM and the “ratio IC50 hV2/hV1a” value is 45.5. Besides, in test [2], the IC50 amounted to 4550 nM.
In the same order, the values of `NC(=O)C1CCCN1C(=O)c1ncccc1-n1cnc(Cn2nc(-c3ccc(Cl)cc3)n(C[C@H](O)C(F)(F)F)c2=O)n1` (mixture of isomers) [Example 441, 1-({3-[3-({3-(4-Chlorophenyl)-5-oxo-4-[(2S)-3,3,3-trifluoro-2-hydroxypropyl]-4,5-dihydro-1H-1,2,4-triazol-1-yl}methyl)-1H-1,2,4-triazol-1-yl]pyridin-2-yl}carbonyl)-prolinamide] are 175 nM, 34.6 and 6050 nM.
In the same order, the values of `O=C(c1ncccc1-n1cnc(Cn2nc(-c3ccc(Cl)cc3)n(C[C@H](O)C(F)(F)F)c2=O)n1)N1CCC(O)(C(F)(F)F)C1` (mixture of isomers) [Example 442, 5-(4-Chlorophenyl)-2-{[1-(2-{[3-hydroxy-3-(trifluoromethyl)pyrrolidin-1-yl]carbonyl}pyridin-3-yl)-1H-1,2,4-triazol-3-yl]methyl}-4-[(2S)-3,3,3-trifluoro-2-hydroxypropyl]-2,4-dihydro-3H-1,2,4-triazol-3-one] are 190 nM, 24.5 and 4650 nM.
In the same order, the values of `O=C(c1ncccc1-n1cnc(Cn2nc(-c3ccc(Cl)cc3)n(C[C@H](O)C(F)(F)F)c2=O)n1)N1CCOC(C(F)(F)F)C1` (mixture of isomers) [Example 444, 5-(4-Chlorophenyl)-4-[(2S)-3,3,3-trifluoro-2-hydroxypropyl]-2-{[1-(2-{[2-(trifluoromethyl)morpholin-4-yl]carbonyl}pyridin-3-yl)-1H-1,2,4-triazol-3-yl]methyl}-2,4-dihydro-3H-1,2,4-triazol-3-one] are 120 nM, 65.4 and 7850 nM.
In the case of `O=C(c1ncccc1-n1cnc(Cn2nc(-c3ccc(Cl)cc3)n(C[C@H](O)C(F)(F)F)c2=O)n1)N1CCNC(C(F)(F)F)C1` (mixture of isomers) [Example 448, 5-(4-Chlorophenyl)-4-[(2S)-3,3,3-trifluoro-2-hydroxypropyl]-2-{[1-(2-{[3-(trifluoromethyl)piperazin-1-yl]carbonyl}pyridin-3-yl)-1H-1,2,4-triazol-3-yl]methyl}-2,4-dihydro-3H-1,2,4-triazol-3-one], in test [1], the IC50 came to 165 nM and the “ratio IC50 hV2/hV1a” value was found to be 16.4. Also, the IC50 in test [2] came out at 2700 nM.
For `O=C(c1ncccc1-n1cnc(Cn2nc(-c3ccc(Cl)cc3)n(C[C@H](O)C(F)(F)F)c2=O)n1)N1CCC(C(F)(F)F)C1` (mixture of isomers) [Example 449, 5-(4-Chlorophenyl)-4-[(2S)-3,3,3-trifluoro-2-hydroxypropyl]-2-{[1-(2-{[3-(trifluoromethyl)pyrrolidin-1-yl]carbonyl}pyridin-3-yl)-1H-1,2,4-triazol-3-yl]methyl}-2,4-dihydro-3H-1,2,4-triazol-3-one], in test [1], the IC50 came to 200 nM and the “ratio IC50 hV2/hV1a” value turned out to be 16.8. The IC50 in test [2] stood at 3350 nM.
In the same order, the values of `NC(=O)C1CCCN1C(=O)c1ncccc1-n1cnc(Cn2nc(-c3ccc(Cl)cc3)n(C[C@@H](O)C(F)(F)F)c2=O)n1` (mixture of isomers) [Example 467, 1-({3-[3-({3-(4-chlorophenyl)-5-oxo-4-[(2R)-3,3,3-trifluoro-2-hydroxypropyl]-4,5-dihydro-1H-1,2,4-triazol-1-yl}methyl)-1H-1,2,4-triazol-1-yl]pyridin-2-yl}carbonyl)-prolinamide] are 620 nM, 51.6 and 32000 nM.
For the compound `O=C(c1ncccc1-n1cnc(Cn2nc(-c3ccc(Cl)cc3)n(C[C@@H](O)C(F)(F)F)c2=O)n1)N1CCC(C(F)(F)F)C1` (mixture of isomers) [Example 480, 5-(4-Chlorophenyl)-4-[(2R)-3,3,3-trifluoro-2-hydroxypropyl]-2-{[1-(2-{[3-(trifluoromethyl)pyrrolidin-1-yl]carbonyl}pyridin-3-yl)-1H-1,2,4-triazol-3-yl]methyl}-2,4-dihydro-3H-1,2,4-triazol-3-one], in test [1], the IC50 was 460 nM and the “ratio IC50 hV2/hV1a” value is on record as 69.6. Further, the IC50 in test [2] worked out at 32000 nM.
In the same order, the values of `NC(CNC(=O)c1ncccc1-n1cnc(Cn2nc(-c3ccc(Cl)cc3)n(C[C@@H](O)C(F)(F)F)c2=O)n1)C(F)(F)F` (mixture of isomers) [Example 484, N-[2-Amino-3,3,3-trifluoropropyl]-3-[3-({3-(4-chlorophenyl)-5-oxo-4-[(2R)-3,3,3-trifluoro-2-hydroxypropyl]-4,5-dihydro-1H-1,2,4-triazol-1-yl}methyl)-1H-1,2,4-triazol-1-yl]pyridine-2-carboxamide] are 210 nM, 44.8 and 9400 nM.
